# Reference: ChEMBL document CHEMBL1201862, “PubChem BioAssay data set” (2004)
#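 Protocol summary: plate cells (96-well), add compound at 5 concentrations, incubate 48 h, interpolate endpoints linearly. At the GI50, growth is halved.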 Calls of active or inactive are those of the source. No stated cut-off is given here; in the data, active = GI50 up to about 1.1 µM and inactive = higher.
# How the values were obtained:
# Test in all cases: inhibition of tumour cell growth, NCI panel, 48 h
# CCRF-CEM = tested on: CCRF-CEM
# HCT-15 = tested on: HCT-15
# HCT-116 = tested on: HCT-116
# MDA-MB-435 = tested on: MDA-MB-435
# KM12 = tested on: KM12
# OVCAR-8 = tested on: OVCAR-8
# DU-145 = tested on: DU-145
# SW-620 = tested on: SW-620
# NCI/ADR-RES = tested on: NCI/ADR-RES
# MDA-MB-231 = tested on: MDA-MB-231
# K562 = tested on: K562
# SN12C = tested on: SN12C
# Malme-3M = tested on: Malme-3M
# SK-MEL-2 = tested on: SK-MEL-2
# IGROV-1 = tested on: IGROV-1
# OVCAR-5 = tested on: OVCAR-5
# SK-MEL-5 = tested on: SK-MEL-5
# SR = tested on: SR
# RPMI-8226 = tested on: RPMI-8226
# SNB-19 = tested on: SNB-19
Structure (SMILES),GI50 (CCRF-CEM),GI50 (HCT-15),GI50 (HCT-116),GI50 (MDA-MB-435),GI50 (KM12),GI50 (OVCAR-8),GI50 (DU-145),GI50 (SW-620),GI50 (NCI/ADR-RES),GI50 (MDA-MB-231),GI50 (K562),GI50 (SN12C),GI50 (Malme-3M),GI50 (SK-MEL-2),GI50 (IGROV-1),GI50 (OVCAR-5),GI50 (SK-MEL-5),GI50 (SR),GI50 (RPMI-8226),GI50 (SNB-19)
O=c1[nH]nc(-c2ccccc2)n1-c1cccc([N+](=O)[O-])c1,> 100 µM (inactive),> 100 µM,> 100 µM (inactive),> 100 µM (inactive),> 100 µM (inactive),> 100 µM (inactive),> 100 µM (inactive),> 100 µM (inactive),> 100 µM (inactive),> 100 µM (inactive),> 100 µM (inactive),> 100 µM (inactive),> 100 µM (inactive),> 100 µM (inactive),> 100 µM (inactive),> 100 µM (inactive),> 100 µM (inactive),> 100 µM (inactive),> 100 µM (inactive),> 100 µM (inactive)
Cc1cccc(Br)[n+]1[O-],> 100 µM (inactive),> 100 µM,> 100 µM (inactive),> 100 µM (inactive),> 100 µM (inactive),> 100 µM (inactive),> 100 µM (inactive),> 100 µM (inactive),> 100 µM (inactive),91.6 µM (inactive),> 100 µM (inactive),97.1 µM (inactive),> 100 µM (inactive),> 100 µM (inactive),> 100 µM (inactive),> 100 µM (inactive),> 100 µM (inactive),> 100 µM (inactive),> 100 µM (inactive),> 100 µM (inactive)
Cc1cccc2c1CC(C1OC(=O)c3ccccc31)C2=O (stereo not given),> 100 µM (inactive),> 100 µM,> 100 µM (inactive),> 100 µM (inactive),> 100 µM (inactive),> 100 µM (inactive),> 100 µM (inactive),> 100 µM (inactive),> 100 µM (inactive),> 100 µM (inactive),> 100 µM (inactive),> 100 µM (inactive),> 100 µM (inactive),> 100 µM (inactive),> 100 µM (inactive),> 100 µM (inactive),> 100 µM (inactive),> 100 µM (inactive),> 100 µM (inactive),> 100 µM (inactive)
FC(F)(F)C1(c2ccccc2)SCc2nc3ccccc3n21 (stereo not given),88.1 µM (inactive),78.7 µM,65.5 µM (inactive),40.6 µM (inactive),> 100 µM (inactive),> 100 µM (inactive),> 100 µM (inactive),> 100 µM (inactive),> 100 µM (inactive),> 100 µM (inactive),43.7 µM (inactive),> 100 µM (inactive),> 100 µM (inactive),> 100 µM (inactive),> 100 µM (inactive),> 100 µM (inactive),66.1 µM (inactive),35.2 µM (inactive),70.5 µM (inactive),> 100 µM (inactive)
